Here are results for 10 compounds from the supplement of paper PMC4862054.

Holding throughout (experiment): normalised response (% of control), CellTox Green; higher = less cell death (100 = DMSO, 0 = benzethonium chloride kill control)
Settings in all cases: incubation time: 72 h

In test [1] the test system is DU-4475. In short, it runs like this:
(§1)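 Breast cancer cell lines (20 µl suspension) were seeded into 384-well plates holding compound at 5 concentrations in 10-fold steps over a compound-specific 10,000-fold range, then incubated 72 h. CellTox Green fluorescence (485/520 nm) was read first, then CellTiter-Glo luminescence after 10 min at room temperature. Each plate was normalised to 0.1 % DMSO (100) and a positive kill control (0). Each value is the normalised signal at a single concentration of the series.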

For test [2], the system named is MDA-MB-436. In a few lines:
as §1

Test [3] deals with MCF-10A. In short, it runs like this: as §1
In test [4] the test system is CAL-85-1. In a few lines: as §1
The test system of test [5] is CAL-51. In short, it runs like this: as §1
In test [6] the test system is BT-549. In short, it runs like this: as §1
For test [7], the system named is Hs578T. In short, it runs like this:
as §1

For test [8], the system named is HCC1937. In a few lines:
as §1

For test [9], the system named is BT-474. In a few lines:
as §1

Test [10] concerns CAL-148. In short, it runs like this: as §1
The subject of test [11] is MFM-223. In a few lines: as §1
Test [12] has as its system HCC1599. In a few lines:
as §1

Test [13] concerns HCC1143. In a few lines:
as §1

In test [14] the test system is MDA-MB-453. In short, it runs like this:
as §1

Regarding `COCC1(CO)C(=O)C2CCN1CC2` (stereo not given) [Prima-1 Met] (1000 nM), the normalised response was found to be 104% in test [1]; 71% in [2]; 101% in test [3]; 102% in [4]; 111% in test [5]; 112% in test [6]. The normalised response in [7] is 108%; in [8], 120%; in test [9], 104%; in test [10] it was 71.1%; in [11], 89.9%; in test [12], 109%. Further, the normalised response in test [13] amounted to 114%; in test [14], 107%.

For `CNC(=O)c1cc(Oc2ccc(NC(=O)Nc3ccc(Cl)c(C(F)(F)F)c3)c(F)c2)ccn1` [Regorafenib] (10000 nM), the normalised response was determined as 92.5% in test [1]; 113% in [2]; 94.5% in test [3]; 83.8% in test [4]; 108% in [5]; 109% in test [6]. In addition, the normalised response is 109% in test [7]; 10.5% in test [8]; 82% in test [9]; 85.1% in test [10]; 97.3% in test [11]; 106% in test [12]. The normalised response in test [13] was 120%; in test [14], 98.3%.

For the compound `CO[C@H]1C[C@@H]2CC[C@@H](C)[C@@](O)(O2)C(=O)C(=O)N2CCCC[C@H]2C(=O)O[C@H]([C@H](C)C[C@@H]2CC[C@@H](OP(C)(C)=O)[C@H](OC)C2)CC(=O)[C@H](C)/C=C(\C)[C@@H](O)[C@@H](OC)C(=O)[C@H](C)C[C@H](C)/C=C/C=C/C=C/1C` [Ridaforolimus] (100 nM), the normalised response in test [1] came to 100%; in [2], 53.1%; in test [3] it was 97.3%; in test [4], 92.7%; in test [5], 102%; in test [6], 125%. Further, the normalised response stood at 116% in test [7]; 103% in [8]; 100% in test [9]; 85.5% in test [10]; 102% in [11]; 89.3% in [12]. In addition, the normalised response came to 121% in test [13] and 104% in test [14].

With `c1ccc2c(CCNc3ccc(Nc4ccncc4)cc3)c[nH]c2c1` [Serdemetan] (10000 nM), the normalised response in [1] is 68.3%; in test [2] it was 99.5%; in [3], 89.8%; in test [4], 94%; in test [5], 69.5%; in [6], 86.7%. Besides, the normalised response worked out at 118% in test [7]; 102% in test [8]; 56.7% in [9]; 26% in test [10]; 38.8% in [11]; 82.8% in [12]. Also, the values for the normalised response in test [13] and in [14] were 89.7% and 95.2%, respectively.

On to `CN(C)CCOc1ccc(/C(=C(/CCCl)c2ccccc2)c2ccccc2)cc1` [Toremifene] (1000 nM), for which the normalised response in test [1] turned out to be 99.9%; in test [2], 70.4%; in test [3] it was 108%; in [4] it was 106%; in test [5], 102%; in test [6], 99.3%. The normalised response in test [7] is 55.3%; in [8], 110%; in [9] it was 100%; in [10] it was 89.1%; in test [11], 92.4%; in test [12], 95.5%. Further, the results for the normalised response in test [13] and in [14] were 118% and 106%, respectively.

For the compound `CC(C)C[C@@H](C(=O)N[C@H](C(=O)OC1CCCC1)c1ccccc1)[C@H](O)C(=O)NO` [Tosedostat] (1000 nM), the normalised response in test [1] amounted to 101%; in test [2], 75.5%; in [3] it was 80.4%; in test [4], 1.91%; in [5], 52.9%; in test [6] it was 70.1%. Moreover, the normalised response in test [7] was 89%; in test [8] it was 90.1%; in test [9] it was 91.7%; in [10], 84.1%; in test [11], 31.9%; in [12], 90.8%. The normalised response in test [13] turned out to be 105%; in test [14], 95.1%.

As to `CC(C)C[C@@H](C(=O)N[C@H](C(=O)OC1CCCC1)c1ccccc1)[C@H](O)C(=O)NO` [Tosedostat] (10000 nM), the normalised response is 97.8% in test [1]; 70.6% in test [2]; 86.8% in [3]; -30.8% in test [4]; 48.5% in [5]; -46.2% in [6]. In addition, the normalised response in test [7] came out at 89.8%; in test [8], 76.8%; in test [9], 66.9%; in test [10], 54.2%; in test [11], 98.5%; in test [12], 95.4%. Further, the results for the normalised response in [13] and in test [14] were 30.3% and 86.1%, respectively.

Turning to `COc1cc2/c(=N/c3ccc(Br)cc3F)nc[nH]c2cc1OCC1CCN(C)CC1` [Vandetanib] (1000 nM), the normalised response in [1] is 96.9%; in [2], 84.6%; in test [3] it was 84%; in test [4], 117%; in [5] it was 96.5%; in test [6] it was 114%. Further, the normalised response came out at 105% in test [7]; 84.1% in test [8]; 96.7% in [9]; 99.8% in test [10]; 95% in [11]; 106% in test [12]. Besides, the normalised response in [13] stood at 85.7%; in test [14], 96.7%.

Take `COCC[n+]1c2c(n(Cc3cnccn3)c1C)C(=O)c1ccccc1C2=O` [YM155] (1000 nM): the normalised response in [1] was 77%; in test [2], -1.05%; in [3], -47.8%; in test [4], -94.7%; in test [5], 4.79%; in test [6], 14.8%. The normalised response in test [7] was 92.9%; in test [8], 9.52%; in test [9], -1.55%; in test [10], -7.66%; in [11] it was 55.1%; in [12], 51.1%. The normalised response amounted to 49.3% in [13] and 42.2% in test [14].

With `COCC[n+]1c2c(n(Cc3cnccn3)c1C)C(=O)c1ccccc1C2=O` [YM155] (10000 nM), the normalised response in test [1] is 68.1%; in test [2] it was 32.2%; in test [3], -38.3%; in test [4] it was -73.8%; in [5] it was 8.9%; in test [6] it was 8.26%. In addition, the normalised response was 18.1% in test [7]; 1.09% in test [8]; -15% in test [9]; 2.48% in [10]; 25.7% in [11]; 55.7% in [12]. The normalised response was 62.8% in test [13] and 28.4% in test [14].
